Test [1] has as its target GSK3α (Homo sapiens, UniProt P49840). Description: In vitro kinase specificity profiling for GSK3α. In kind it is biochemical.
The target of test [2] is EGFR L858R (Homo sapiens, UniProt P00533, L858R). The test can be described thus: In vitro kinase specificity profiling. In kind it is biochemical.
Test [3] concerns the target EGFR T790M (Homo sapiens, UniProt P00533, T790M). Description: In vitro kinase specificity profiling. Format: biochemical.
For test [4], the target named is JAK2 (Homo sapiens, UniProt O60674). Description: In vitro kinase specificity profiling. Format: biochemical.
Chain of JAK2 (O60674 whole entry): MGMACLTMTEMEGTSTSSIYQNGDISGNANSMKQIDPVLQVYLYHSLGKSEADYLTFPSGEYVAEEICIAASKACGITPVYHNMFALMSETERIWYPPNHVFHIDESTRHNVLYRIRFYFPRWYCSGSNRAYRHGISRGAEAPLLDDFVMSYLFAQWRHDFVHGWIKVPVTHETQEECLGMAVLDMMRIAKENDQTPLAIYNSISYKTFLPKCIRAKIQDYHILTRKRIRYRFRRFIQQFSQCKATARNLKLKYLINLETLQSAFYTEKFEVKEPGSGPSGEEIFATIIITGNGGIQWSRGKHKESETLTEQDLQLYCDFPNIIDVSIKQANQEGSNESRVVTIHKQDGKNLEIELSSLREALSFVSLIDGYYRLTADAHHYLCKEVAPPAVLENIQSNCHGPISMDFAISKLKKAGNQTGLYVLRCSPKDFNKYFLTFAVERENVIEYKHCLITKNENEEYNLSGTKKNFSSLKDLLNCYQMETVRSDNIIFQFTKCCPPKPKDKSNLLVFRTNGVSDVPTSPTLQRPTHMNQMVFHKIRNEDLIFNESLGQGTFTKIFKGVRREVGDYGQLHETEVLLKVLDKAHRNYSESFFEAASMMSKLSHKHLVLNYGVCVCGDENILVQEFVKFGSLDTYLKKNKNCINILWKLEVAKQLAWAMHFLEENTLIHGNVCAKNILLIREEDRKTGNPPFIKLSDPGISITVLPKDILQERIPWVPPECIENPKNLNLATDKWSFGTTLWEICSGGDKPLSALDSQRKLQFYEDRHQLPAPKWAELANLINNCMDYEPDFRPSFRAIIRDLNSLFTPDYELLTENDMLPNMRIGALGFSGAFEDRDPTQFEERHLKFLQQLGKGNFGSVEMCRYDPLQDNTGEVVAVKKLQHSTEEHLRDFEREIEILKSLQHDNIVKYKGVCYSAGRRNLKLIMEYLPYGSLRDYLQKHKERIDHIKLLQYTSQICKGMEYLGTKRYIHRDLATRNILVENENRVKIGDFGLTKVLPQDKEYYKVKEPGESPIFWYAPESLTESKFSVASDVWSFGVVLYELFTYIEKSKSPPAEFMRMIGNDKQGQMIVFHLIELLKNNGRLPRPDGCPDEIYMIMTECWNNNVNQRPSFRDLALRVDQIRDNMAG
For test [5], the target named is T790M/L858R EGFR (Homo sapiens, UniProt P00533, L858R/T790M). The test can be described thus: In vitro kinase specificity profiling. In kind it is biochemical.
Chain of T790M/L858R EGFR (P00533 25-1210 T790M/L858R): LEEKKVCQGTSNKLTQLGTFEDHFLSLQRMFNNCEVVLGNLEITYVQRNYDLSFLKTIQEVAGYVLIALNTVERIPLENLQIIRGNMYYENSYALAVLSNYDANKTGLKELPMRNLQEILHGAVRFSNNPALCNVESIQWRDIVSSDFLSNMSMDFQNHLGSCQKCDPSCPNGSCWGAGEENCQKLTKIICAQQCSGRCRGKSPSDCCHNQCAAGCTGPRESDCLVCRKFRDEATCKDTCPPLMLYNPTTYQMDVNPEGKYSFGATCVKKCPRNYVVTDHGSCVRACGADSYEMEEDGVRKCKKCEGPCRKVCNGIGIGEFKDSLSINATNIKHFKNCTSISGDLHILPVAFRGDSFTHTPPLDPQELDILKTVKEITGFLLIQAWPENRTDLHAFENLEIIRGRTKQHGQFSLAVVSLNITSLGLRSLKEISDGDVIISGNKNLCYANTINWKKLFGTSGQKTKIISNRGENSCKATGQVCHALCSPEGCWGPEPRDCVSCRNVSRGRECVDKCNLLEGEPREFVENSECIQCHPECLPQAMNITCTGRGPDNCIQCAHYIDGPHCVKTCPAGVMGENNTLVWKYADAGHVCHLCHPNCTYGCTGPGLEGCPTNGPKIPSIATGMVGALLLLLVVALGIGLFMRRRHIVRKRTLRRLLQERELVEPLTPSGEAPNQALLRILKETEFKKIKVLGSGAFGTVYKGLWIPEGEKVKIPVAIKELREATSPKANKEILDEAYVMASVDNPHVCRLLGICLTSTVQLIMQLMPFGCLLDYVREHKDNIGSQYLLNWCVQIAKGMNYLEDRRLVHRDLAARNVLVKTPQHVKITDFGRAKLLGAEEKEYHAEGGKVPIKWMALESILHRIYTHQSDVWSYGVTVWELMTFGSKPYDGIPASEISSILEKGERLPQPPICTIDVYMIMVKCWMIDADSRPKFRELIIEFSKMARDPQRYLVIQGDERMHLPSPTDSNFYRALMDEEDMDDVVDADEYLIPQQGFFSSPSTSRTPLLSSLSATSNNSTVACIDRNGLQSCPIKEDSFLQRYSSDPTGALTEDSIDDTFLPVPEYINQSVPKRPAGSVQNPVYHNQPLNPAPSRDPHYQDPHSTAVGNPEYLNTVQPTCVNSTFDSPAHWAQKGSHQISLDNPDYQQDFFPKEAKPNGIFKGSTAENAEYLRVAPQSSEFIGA
Test [6] concerns PD-L1. Description: PD-L1 phosphorylation sites by mass spectrometry in HEK293T cells transfected with Flag-PD-L1. To be noted: Flag-PD-L1, 10 μM ES-072 48 h, MS-MS. In kind it is cell-based, human. How it is done: Fig. 2 Phosphorylation on S279/S283 impairs the stability of PD-L1. a Mapping PD-L1 phosphorylation sites following ES-072 treatment. HEK293T cells were transfected with Flag-PD-L1 and treated with 10 μM ES-072 for 48 h. Immunoprecipitated PD-L1 was analyzed by mass spectrometry following phosphopeptide enrichment. Peptide ionization data corresponding to Ser279/283 are shown. b Schematic diagram of phosphorylated sites on PD-L1. Full-length PD-L1 was separated into an extracellular domain (ECD) and intracellular domain (ICD). SP: signal peptide; TM: transmembrane domain. c Schematic diagram of phosphorylated sites, S279 and S283 in the ICD of PD-L1. Positions of phosphorylated sites were labeled in red. This image was created by the first author. d Immunoblots of PD-L1 (anti-Flag) in HEK293T cells transfected with Flag-PD-L1 (WT) or Flag-PD-L1 (mutants) following treatment with 25 ng/mL EGF and/or 10 μM ES-072 for 48 h, 2SA represents S279A/S283A. e Immunoblots of PD-L1 (anti-Flag) in HEK293T cells transfected with Flag-PD-L1 (WT/2SA) following treatment with 20 μg/mL cycloheximide (CHX) for indicated times. f Immunoblots of H1975 cell lysates following ES-072 treatment for 2 h, at indicated doses. g HEK293T cells were transfected with Flag-PD-L1 (WT/2SA) following treatment with 10 μM ES-072 for 2 h; PD-L1 was immunoprecipitated with anti-Flag and immunoblotted with indicated antibodies. Flag-tagged empty vector (Flag-EV) was transfected as a negative control. h Representative images of p-PD-L1 (Ser279) and PD-L1 immunohistochemistry (IHC) staining from EGFR wild-type vs. mutant human alveolar adenocarcinoma specimens. Scale bars represent 50 μm. i, j Quantification of IHC analysis for p-PD-L1 (Ser279) (i) and PD-L1 (j) in h. Data represent means ± SEM, n = 7 (i), n = 5 (j), **P < 0.01, P = 0.0013 (i); P = 0.002 (j). k Immunoblottings of p-PD-L1 (Ser279) and PD-L1 in EGFR wild-type (n = 4) vs. mutant (n = 4) human lung adenocarcinoma specimens. Source data are provided as a Source Data file.
Flag-tagged PD-L1 was overexpressed in HEK293T cells and were trypsin-digested. PD-L1 was immunoprecipitated with beads following immunoprecipitation. The resulting peptides were subjected to the phosphopeptide enrichment using TiO2 beads. The enriched phospho-peptides were analyzed on the Q Exactive™ HF mass spectrometer (Thermo Fisher Scientific). The identification and quantification of phosphorylated peptides were done by MaxQuant. The tandem mass spectra were searched against the UniProt human protein database together with a set of commonly observed contaminants. The precursor mass tolerance was set as 20 p.p.m. and the fragment mass tolerance was set as 0.1 Da. The […] cysteine carbamide methylation was set as a static modification and the methionine oxidation, as well as serine, threonine, and tyrosine phosphorylation, were set as variable modifications. The false discovery rate (FDR) at peptide spectrum match level was controlled below 1%.

As a reminder, the IC50 is the concentration that inhibits the measured activity by half. High values mean weaker potency in that assay, low ones greater potency in that assay.

Chain of GSK3α (P49840 whole entry): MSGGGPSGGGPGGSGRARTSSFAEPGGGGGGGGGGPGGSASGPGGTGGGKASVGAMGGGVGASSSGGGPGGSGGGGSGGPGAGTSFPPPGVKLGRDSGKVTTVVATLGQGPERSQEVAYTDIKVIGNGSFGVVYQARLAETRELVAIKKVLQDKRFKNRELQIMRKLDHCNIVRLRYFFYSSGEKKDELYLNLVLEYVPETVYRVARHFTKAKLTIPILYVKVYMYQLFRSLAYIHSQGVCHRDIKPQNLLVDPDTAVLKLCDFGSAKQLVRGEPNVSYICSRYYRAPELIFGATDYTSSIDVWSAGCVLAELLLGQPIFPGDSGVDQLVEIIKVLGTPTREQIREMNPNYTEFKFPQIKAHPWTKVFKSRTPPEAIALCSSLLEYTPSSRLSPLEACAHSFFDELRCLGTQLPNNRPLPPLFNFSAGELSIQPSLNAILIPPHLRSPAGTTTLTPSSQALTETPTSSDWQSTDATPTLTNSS
Chain of EGFR L858R (P00533 25-1210 L858R): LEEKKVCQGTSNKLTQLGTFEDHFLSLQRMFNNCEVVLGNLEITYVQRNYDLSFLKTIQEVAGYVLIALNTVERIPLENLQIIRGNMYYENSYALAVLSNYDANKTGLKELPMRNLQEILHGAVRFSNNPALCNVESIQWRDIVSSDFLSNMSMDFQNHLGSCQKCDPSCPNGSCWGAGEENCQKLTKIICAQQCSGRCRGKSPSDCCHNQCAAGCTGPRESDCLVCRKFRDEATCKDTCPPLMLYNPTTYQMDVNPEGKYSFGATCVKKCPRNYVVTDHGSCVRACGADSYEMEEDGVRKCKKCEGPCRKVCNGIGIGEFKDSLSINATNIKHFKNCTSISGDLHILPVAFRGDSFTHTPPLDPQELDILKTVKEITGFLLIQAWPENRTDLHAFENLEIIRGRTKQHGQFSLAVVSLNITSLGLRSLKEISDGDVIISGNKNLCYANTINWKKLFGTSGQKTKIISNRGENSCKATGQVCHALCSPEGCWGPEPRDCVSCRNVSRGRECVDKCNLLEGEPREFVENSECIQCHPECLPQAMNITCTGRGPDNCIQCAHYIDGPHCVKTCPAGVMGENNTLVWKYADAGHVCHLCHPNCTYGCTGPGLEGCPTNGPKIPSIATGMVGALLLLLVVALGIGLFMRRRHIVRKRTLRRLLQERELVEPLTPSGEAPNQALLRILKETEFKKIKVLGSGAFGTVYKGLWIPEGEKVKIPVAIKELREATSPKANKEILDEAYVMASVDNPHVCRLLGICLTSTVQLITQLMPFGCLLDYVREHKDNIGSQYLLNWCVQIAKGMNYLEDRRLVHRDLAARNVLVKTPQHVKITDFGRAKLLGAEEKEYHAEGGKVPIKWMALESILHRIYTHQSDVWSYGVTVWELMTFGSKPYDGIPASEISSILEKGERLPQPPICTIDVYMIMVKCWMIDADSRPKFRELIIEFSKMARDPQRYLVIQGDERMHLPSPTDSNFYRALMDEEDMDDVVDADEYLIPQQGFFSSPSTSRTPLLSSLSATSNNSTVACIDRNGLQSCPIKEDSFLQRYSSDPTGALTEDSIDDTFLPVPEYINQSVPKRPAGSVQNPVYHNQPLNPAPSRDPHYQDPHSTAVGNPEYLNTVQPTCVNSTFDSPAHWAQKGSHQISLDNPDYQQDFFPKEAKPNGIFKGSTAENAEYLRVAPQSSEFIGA

For `C=CC(=O)Nc1cccc(Nc2nc(Nc3ccc(N4CCN(C)CC4)nc3OC)ncc2C(F)(F)F)c1` [ES-072], in test [1] (as worded in response to reviewers), the IC50 was over 40000 nM. Also, the IC50 in test [1] (single independent tests) is over 40000 nM. The IC50 in test [2] was 2.7 nM. In test [3], this compound registered an IC50 of under 0.5 nM. In test [4], this compound gave an IC50 of 4960 nM. Also, the IC50 in test [5] was 1.75 nM. In test [6], the “ES/NC (PD-L1 phosphorylation site S79)” value is given as 1.28, the “ES/NC (PD-L1 phosphorylation site S93)” value came out at 1.52, the “ES/NC (PD-L1 phosphorylation site S170)” value was 0.00 and the “ES/NC (PD-L1 phosphorylation site S176)” value was 0.00. Moreover, in test [6], the “ES/NC (PD-L1 phosphorylation site S279)” value is given as 5.00, the “ES/NC (PD-L1 phosphorylation site S283)” value was 2.06 and the “ES/NC (PD-L1 phosphorylation site T290)” value is recorded as 1.95.

Values taken from paper PMC8058344, “ARIH1 signaling promotes anti-tumor immunity by targeting PD-L1 for proteasomal degradation” (Nature Communications, 2021).
